# Where two headings read alike, the source gives them in different places.
# Legend:
# [1] = system: MDD patients with at least one rare variant in an indicated SNP biomarker; conditions: with an SSRI
# [2] = system: remitters with MDD at end of double-blind phase; conditions: for Relapsers (HAM-D-17 > 15) during 12-month maintenance phase: 15 mg/day 6(S)-5-MTHF as an adjuvant
# Description: During each visit, patients are administered the HAM-D-28, the CGI, the QIDS-SR, the SAFTEE-SI, the MGH-CPFQ, and the MGH-SFQ (See, e.g., Table 10 below). […] Subjects are also allowed to change their antidepressant during the course of the follow-up, if deemed appropriate. For patients who refuse the 12 months of free follow-up care, a referral to a psychiatrist is offered.
# [3] = CACNA1C rs1006737 (AG), 13(30, 16)
# [4] = COMT (Val 158) rs4633 (CC), 22(18, 9)
# [5] = COMT (Val 158 Met) rs4680 (GG), 33(17, 9)
# [6] = DAT (SLC6A3) rs250682 (CG), 33(33, 15)
# [7] = DNMT38 rs1883729 (AG), 11(13, 8)
# [8] = DNMT38 rs1883729 (AG), 11/13(32, 18)
# [9] = DNMT38 rs1883729 (AG), 13(19, 10)
# [10] = DRD2 (H313H) rs6275 (TT), 11(10, 5)
# [11] = DRD2 (SLC26A9) rs11240594 (AG), 33(36, 20)
# [12] = DRD2 (Taql Br) rs1079596 (TC), 42(18, 11)
# [13] = DRD2 (Taql Br) rs1079596 (TC), 42/44(18, 11)
# [14] = FDRC rs2277820 (TC), 22(30, 15)
# [15] = GCHFR rs7163862 (TA), 41(37, 20)
# [16] = GCHI rs8007267 (TC), 42(22, 10)
# [17] = GCPH or FOLH1 rs202676 (AG), 31(23, 9)
# [18] = MTHFD 1 G1958A (R653Q) rs2236225 (AG), 33(28, 16)
# [19] = MTHFR G1793A rs2274976 (GA), 42(19, 5)
# [20] = PCYT1A rs7639752 (AA), 11(12, 7)
# [21] = RCF1 A > G rs2297291 (AA), 11(12, 7)
# [22] = RCF2 (in SLC19A3) rs12659 (TT), 11(10, 7)
# [23] = RCFI (in SLC19A1) rs1051266 (AA), 44(11, 6)
smiles,measurement,setting,value
"CN1c2c(nc(N)[nH]c2=O)NC[C@@H]1CNc1ccc(C(=O)N[C@@H](CCC(=O)O)C(=O)O)cc1 [6(S)-5-MTHF, 6(S)-5-methyltetrahydrofolate]","EFFECT on change in HAMD-28, PHASE I",[1]; [3],−8.006
same,"EFFECT on change in HAMD-28, PHASE II",[1]; [3],−2.467
same,"EFFECT on change in HAMD-28, POOLED PHASES",[1]; [3],−4.633
same,"EFFECT on change in HAMD-28, PHASE I",[1]; [4],−10.070
same,"EFFECT on change in HAMD-28, PHASE II",[1]; [4],−10.170
same,"EFFECT on change in HAMD-28, POOLED PHASES",[1]; [4],−9.240
same,"EFFECT on change in HAMD-28, PHASE I",[1]; [5],−12.070
same,"EFFECT on change in HAMD-28, PHASE II",[1]; [5],−10.170
same,"EFFECT on change in HAMD-28, POOLED PHASES",[1]; [5],−10.880
same,"EFFECT on change in HAMD-28, PHASE I",[1]; [6],−5.722
same,"EFFECT on change in HAMD-28, PHASE II",[1]; [6],−5.768
same,"EFFECT on change in HAMD-28, POOLED PHASES",[1]; [6],−4.996
same,"EFFECT on change in HAMD-28, PHASE I",[1]; [7],−2.318
same,"EFFECT on change in HAMD-28, PHASE II",[1]; [7],−5.267
same,"EFFECT on change in HAMD-28, POOLED PHASES",[1]; [7],−4.811
same,"EFFECT on change in HAMD-28, PHASE I",[1]; [8],−6.340
same,"EFFECT on change in HAMD-28, PHASE II",[1]; [8],−4.940
same,"EFFECT on change in HAMD-28, POOLED PHASES",[1]; [8],−5.360
same,"EFFECT on change in HAMD-28, PHASE I",[1]; [9],−8.097
same,"EFFECT on change in HAMD-28, PHASE II",[1]; [9],−4.667
same,"EFFECT on change in HAMD-28, POOLED PHASES",[1]; [9],−6.748
same,"EFFECT on change in HAMD-28, PHASE I",[1]; [10],−16.560
same,"EFFECT on change in HAMD-28, PHASE II",[1]; [10],1.667
same,"EFFECT on change in HAMD-28, POOLED PHASES",[1]; [10],−7.627
same,"EFFECT on change in HAMD-28, PHASE I",[1]; [11],−5.018
same,"EFFECT on change in HAMD-28, PHASE II",[1]; [11],−3.424
same,"EFFECT on change in HAMD-28, POOLED PHASES",[1]; [11],−3.758
same,"EFFECT on change in HAMD-28, PHASE I",[1]; [12],−10.640
same,"EFFECT on change in HAMD-28, PHASE II",[1]; [12],−3.893
same,"EFFECT on change in HAMD-28, POOLED PHASES",[1]; [12],−6.903
same,"EFFECT on change in HAMD-28, PHASE I",[1]; [13],−10.640
same,"EFFECT on change in HAMD-28, PHASE II",[1]; [13],−3.893
same,"EFFECT on change in HAMD-28, POOLED PHASES",[1]; [13],−6.903
same,"EFFECT on change in HAMD-28, PHASE I",[1]; [14],−2.634
same,"EFFECT on change in HAMD-28, PHASE II",[1]; [14],−6.232
same,"EFFECT on change in HAMD-28, POOLED PHASES",[1]; [14],−4.027
same,"EFFECT on change in HAMD-28, PHASE I",[1]; [15],−6.380
same,"EFFECT on change in HAMD-28, PHASE II",[1]; [15],−4.542
same,"EFFECT on change in HAMD-28, POOLED PHASES",[1]; [15],−4.863
same,"EFFECT on change in HAMD-28, PHASE I",[1]; [16],−7.729
same,"EFFECT on change in HAMD-28, PHASE II",[1]; [16],−5.417
same,"EFFECT on change in HAMD-28, POOLED PHASES",[1]; [16],−6.654
same,"EFFECT on change in HAMD-28, PHASE I",[1]; [17],−7.314
same,"EFFECT on change in HAMD-28, PHASE II",[1]; [17],−3.300
same,"EFFECT on change in HAMD-28, POOLED PHASES",[1]; [17],−5.402
same,"EFFECT on change in HAMD-28, PHASE I",[1]; [18],−2.742
same,"EFFECT on change in HAMD-28, PHASE II",[1]; [18],−3.762
same,"EFFECT on change in HAMD-28, POOLED PHASES",[1]; [18],−3.496
same,"EFFECT on change in HAMD-28, PHASE I",[1]; [19],−5.333
same,"EFFECT on change in HAMD-28, PHASE II",[1]; [19],2.833
same,"EFFECT on change in HAMD-28, POOLED PHASES",[1]; [19],−5.551
same,"EFFECT on change in HAMD-28, PHASE I",[1]; [20],−10.400
same,"EFFECT on change in HAMD-28, PHASE II",[1]; [20],−3.900
same,"EFFECT on change in HAMD-28, POOLED PHASES",[1]; [20],−6.216
same,"EFFECT on change in HAMD-28, PHASE I",[1]; [21],−8.778
same,"EFFECT on change in HAMD-28, PHASE II",[1]; [21],−1.400
same,"EFFECT on change in HAMD-28, POOLED PHASES",[1]; [21],−5.458
same,"EFFECT on change in HAMD-28, PHASE I",[1]; [22],−7.571
same,"EFFECT on change in HAMD-28, PHASE II",[1]; [22],−1.400
same,"EFFECT on change in HAMD-28, POOLED PHASES",[1]; [22],−4.860
same,"EFFECT on change in HAMD-28, PHASE I",[1]; [23],−10.000
same,"EFFECT on change in HAMD-28, PHASE II",[1]; [23],−2.750
same,"EFFECT on change in HAMD-28, POOLED PHASES",[1]; [23],−7.673
same,Relapsers (HAM-D-17 > 15) during 12-month maintenance phase,[2]; Trial 1 remitters (2 entering),0
same,Relapsers (HAM-D-17 > 15) during 12-month maintenance phase,[2]; Trial 2 remitters (9 entering),0
same,relapse during 12-month maintenance phase (in words),"[2]; remitters at end of double-blind phase, adjunctive 15 mg/day",did not have a relapse

# — patent publication US9540691B2, “Assays and methods for selecting a treatment regimen for a subject with depression” (THE GENERAL HOSPITAL CORPORATION, priority 2011, dated 2017)
